This is an account of results in paper PMC2009770, “Thiophene analogues of the carcinogens benzidine and 4-aminobiphenyl: evaluation in vitro” (British Journal of Cancer, 1978).

On the set-up of series [1]: method as in Laham & Sinclair, 1969. To be noted: rats; ref Laham & Sinclair, 1969; cited from earlier work.
The conditions of series [2]: ref Ashby & Cook, 1974; cited from earlier work.
For series [3], the system named is BHK 21/C13 cells. Put plainly: cell-transformation assay of Styles. To be noted: presence of S-9 mix, 2 separate occasions (Fig. 2).
The test system of series [4] is Salmonella strains TA 1535, TA 1538, TA 98 and TA 100. Put plainly: Salmonella reverse-mutation assay of Ames. To be noted: for response in the Ames assay (Fig. 1): strain TA 1538, presence of Aroclor 1254-induced rat liver S-9 mix. (The Ames test detects mutagens through reverse mutation in bacteria.)
Series [5] can be described thus: chemical stability to heat, light and air (monitored by TLC and m.p.). It counts as physicochemical. To be noted: for stability to heat and light: monitored by TLC and m.p.; for behaviour of the solid in air and light: noted at preparation.
The subject of series [6] is BHK 21/C13 cells. Briefly: parallel cell-toxicity assay (% survivors) of the transformation assay. It counts as cell-based.

`Nc1ccc(-c2ccc([N+](=O)[O-])cc2)cc1` [4-nitro-4'-aminobiphenyl]: the bladder cancer induction result in series [1] is reported as “induces bladder cancer”.
In the case of `Nc1ccc2c(c1)sc1ccccc12` [VII, 3-amino-dibenzothiophene], the carcinogenicity result in series [2] is “carcinogenicity”.
On to `Nc1ccc(-c2ccc(N)cc2)cc1` [XI, benzidine], for which, in series [1], the bladder cancer induction entry is reported as “induces bladder cancer”. The “response in the cell-transformation assay” value in the series with BHK 21/C13 cells [3] was “positive”. In series [4] (4 Salmonella strains, 3 separate occasions, presence and absence of Aroclor 1254-induced rat liver S-9 mix), the “response in the Ames assay” value is recorded as “positive on each occasion”. Also, in series [4], the “response in the Ames assay (Fig. 1)” value is listed as “positive response”.
As to `CC(=O)Nc1ccc(-c2ccc(N)s2)cc1.Cl` [XIII, 5-p-acetamidophenyl-2-thiophenamine hydrochloride], in series [5], the “stability to heat and light” value was “unstable to heat and light”; the “behaviour of the solid in air and light” value is “sensitive to light and air”.
With `Cl.Nc1ccc(-c2ccccc2)s1` [XIV, 5-phenyl-2-thiophenamine hydrochloride], in series [5], the “stability to heat and light” value is “unstable to heat and light”; the “behaviour of the solid in air and light” value is “discolours quickly in air and light”.
`CC(=O)Nc1ccc(-c2ccc(NC(C)=O)s2)cc1` [XV, N-(5-p-acetamido-phenylthiophen-2-yl)acetamide]: the “stability to heat and light” value in series [5] is “stable”. Besides, the “response in the Ames assay (Fig. 1)” value in series [4] was “positive response”. Moreover, in the series with BHK 21/C13 cells [6], the “cytotoxicity (toxicity curve, % survivors)” value is recorded as “toxicity curve similar to that of benzidine”.
Consider `CC(=O)Nc1ccc(-c2ccccc2)s1` [XVI, N-(5-phenylthiophen-2-yl)-acetamide], for which, in series [5], the “stability to heat and light” value is recorded as “stable”. Further, in the series on BHK 21/C13 cells [6], the “cytotoxicity (toxicity curve, % survivors)” value is on record as “toxicity curve similar to that of benzidine”.
